# Values quoted from earlier work, collected in publication PMC5572576 (The Lancet. Oncology, 2017).
# Where two headings read alike, the source gives them in different places.
# Tests used:
# [1] = tested on: patients with R/R AML; conditions: cited from earlier work
# [2] = tested on: patients with R/R AML; conditions: cited from earlier work; remark: listed apart in the source
# [3] = tested on: patients with newly diagnosed AML aged <60 years; conditions: added to intensive chemotherapy; cited from earlier work
structure (smiles),measurement,setting,value
CO[C@@H]1[C@H](N(C)C(=O)c2ccccc2)C[C@H]2O[C@]1(C)n1c3ccccc3c3c4c(c5c6ccccc6n2c5c31)C(=O)NC4 [midostaurin],CR,[1],CR was not achieved
same,Patients with a reduction in blast counts,[1]; patients with FLT3WT,42%
same,Patients with a reduction in blast counts,[1]; patients with FLT3 mutations,71%
CC(C)(C)c1cc(NC(=O)Nc2ccc(-c3cn4c(n3)sc3cc(OCCN5CCOCC5)ccc34)cc2)no1 [quizartinib],Median OS,[2]; FLT3-ITD subgroup,18 weeks
same,Median OS,[2]; entire study population,14 weeks
CNC(=O)c1cc(Oc2ccc(NC(=O)Nc3ccc(Cl)c(C(F)(F)F)c3)cc2)ccn1 [sorafenib],3-year event-free survival (EFS) rate,[3],40%
